Measurements: patent US20170143009A1, “ANIMAL FEED AND AQUAFEED” (DUPONT NUTRITION BIOSCIENCES APS, priority 2014, published 2017)

Tests used:
Pacific white shrimp = test: 8-week feeding trial, growth performance and feed utilisation; assay type: in vivo, Litopennaeus vannamei; conditions: 8 weeks; for Final individual body weight gain: 5 replicates
Experimental: The feeding experiment (8 weeks) on Pacific white shrimp was conducted at the shrimp farm facilities of Prince of Songkhla University, Pattani Campus in Thailand. The shrimp rearing unit was made up of fiberglass aquarium of 235 L. The parameters to assess the water quality i.e. salinity, dissolved oxygen (DO), temperature and pH were measured daily using standard protocols. There was a weekly monitoring of NH3 and NO2. Siphoning of left-over feed and faeces and exchange of 10% of water was done daily.
Pacific white leg shrimp (Litopennaeus vannamei) were obtained from a standard farm in Pattani province. Shrimp were acclimatized in a concrete pond for 7 days prior to the start of the experiment. It was ensured that the juveniles were not infested with bacteria, parasites and viruses. […] They were sorted and allotted randomly for a particular feed group. 30 shrimps were introduced into each of the 235 L fibreglass aquarium (5 aquariums per feed group). It was confirmed that there was no significant difference in the initial weights of the groups. They were grown in the system for 8 weeks.
Experimental shrimp feeds were used.
In the present study, positive control was based on 9% fish meal whereas negative control with or without betaine products) was based on 4% fish meal as indicated in the feed formulation in table 2.
The experimental feeds were hand fed everyday; four times a day. Feed consumption as well as amount of unconsumed feed were monitored (weighed) daily.
Daily feed was based on feed guide x number of surviving animals, and was predetermined one week in advance, but was adjusted on a daily basis if significant amount of feed remained non eaten or if all feed was consumed, in order to avoid underfeeding or overfeeding. The animals were weighed every 2 weeks—all animals in each of the aquaria were weighed.
The bulk weights of shrimp were recorded from each experimental unit at the start of the feeding period. Weight measurement was examined every two weeks by sampling 10% of white shrimp in each net cage (at week 2, 4, 6, and 8). At the end of the study (8 weeks), all shrimp in each net cage were weighed. The number of survivors was also checked. The determination of weight gain was based on the total biomass in each net cage considering the number of survivors.
Survival (%)=100 (Final shrimp number/Initial shrimp number)
Weight gain, WG (%)=[[(Mean final bodyweight)−(Mean initial body weight)]/Mean initial body weight]×100.
Rate of feed intake (%/BW/day)=Feed intake (g)×100/[((mean final BW+mean initial BW)/2)×((number of final shrimp+number of initial shrimp)/2)×time (days)].
Feed conversion ratio, FCR=Dry feed intake (g)/[Final biomass (g)−Initial biomass (g)+Biomass of the dead shrimp (g)].

[1] = pure form; water and lower alcohols; cited from earlier work
[2] = NC feed (4% fish meal) + 0.5% uncoated betaine
[3] = NC feed (4% fish meal) + 1% uncoated betaine

Which results are given for `C[N+](C)(C)CC(=O)[O-]` [Uncoated Betafin, trimethylglycine]?
Final individual body weight gain (Pacific white shrimp; NC feed (4% fish meal) + 0.5% uncoated betaine (5 kg/tonne of feed)): 5.58 ± 0.29ab g/shrimp; FCR (feed conversion ratio) (Pacific white shrimp; [2]): 1.83 ± 0.09a; Feed intake (Pacific white shrimp; [2]): 7.60 ± 0.51b; Survival (Pacific white shrimp; [2]): 95.8 ± 4.2abcd %; Final individual body weight gain (Pacific white shrimp; NC feed (4% fish meal) + 1% uncoated betaine (10 kg/tonne of feed)): 6.06 ± 0.82a g/shrimp; FCR (feed conversion ratio) (Pacific white shrimp; [3]): 1.85 ± 0.21a; Feed intake (Pacific white shrimp; [3]): 8.46 ± 0.48a; Survival (Pacific white shrimp; [3]): 95.0 ± 3.3abcd %; Feed intake (Pacific white shrimp; NC feed (4% fish meal) + 1% uncoated betaine, listed as betaine): significantly higher than positive control; Solubility [1]: readily soluble in water and lower alcohols
